Experiment [1] concerns Hh pathway (Gli-responsive firefly luciferase reporter). As to the kind of experiment: Hh-dependent Gli-luciferase reporter assay in SAG-treated NIH3T3 Shh-Light II cells. To be noted: SAG (200 nM)-treated NIH3T3 Shh-Light II cells, 48 h, normalized to Renilla; N.A. = Not Active. The format is cell-based. As for the experimental part: The inhibitory properties of the potential Smo antagonists 1–17 were investigated in a luciferase reporter assay that is widely used for characterizing Hh inhibitors. NIH3T3 Shh-Light II cells, stably incorporating a Gli-responsive firefly luciferase reporter (Gli-RE),[25] were treated with the synthetic Smo agonist SAG[24] alone or in combination with the selected small molecules to evaluate their dose–response ability to suppress Hh pathway. […] We excluded the possibility that inhibition activity in this assay was mediated by cytotoxicity because no decrease was shown in the luciferase assay control Renilla as observed instead for 13–17.
The luciferase assay was performed in Shh-Light II cells, stably incorporating a Gli-responsive luciferase reporter and the pRL-TK Renilla (normalization control), treated for 48 h with SAG (200 nM) and the studied compounds. Luciferase and Renilla activity were assayed with a dual-luciferase assay system according to the manufacturer's instruction (Biotium Inc., Hayward, CA, USA). Results are expressed as luciferase/Renilla ratios and represent the mean±S.D. of three experiments, each performed in triplicate.

The subject of experiment [2] is Hh target genes (Gli1 and others) in Ptch1^−/− MEFs. Description: qRT-PCR of endogenous Hh target genes in Ptch1−/− MEFs. The experiment is classed as cell-based, mouse. To be noted: 5 μM, 48 h. From the text:
For this reason, we focused further studies only on 12. To investigate the inhibitory properties of 12 on Hh pathway, we analyzed endogenous Hh target gene activation in genetically defined Ptch1^−/− mouse embryonic fibroblasts (Ptch1^−/− MEFs) (Figure 2a). In these cells, constitutive activation of the Hh pathway is the consequence of the loss of repressive receptor Ptch1 gene, thus determining high expression levels of Hh target.
Figure 2 Compound 12 inhibits Hh signaling without affecting AP1/Jun and WNT/β-Catenin pathways. (a) The graphs show the Hh target genes expression levels in Ptch1^−/− MEFs treated for 48 h with 12 or DMSO as control. mRNA levels were determined by quantitative real-time PCR (qRT-PCR) normalized to endogenous control (β2-microglobulin and HPRT). Pfkfb3 gene was used as negative control. *P<0.05 versus CTR. […]
Total RNA was isolated with Trizol (Invitrogen/Life Technologies, Carlsbad, CA, USA) and reverse transcribed with SensiFAST cDNA Synthesis Kit (Bioline Reagents Limited, London, UK). Quantitative real-time PCR (Q-PCR) analysis of Gli1, Gli2, Ptch1, Bmp2, Pfkfb3, CycD1, CycD2, Pcna, Oct4, Nanog, β-2 microglobulin, β-actin and HPRT mRNA expression was performed on each cDNA sample using the VIIA7 Real Time PCR System employing Assay-on-Demand Reagents (Life Technologies). […]

Experiment [3] has as its system WNT/β-Catenin pathway. As to the kind of experiment: WNT/β-Catenin luciferase reporter assay (Top Flash-luciferase and β-Catenin) in MEFs WT. To be noted: increasing concentrations, 24 h. The format is cell-based, mouse. As for the experimental part:
Figure 2 Compound 12 inhibits Hh signaling without affecting AP1/Jun and WNT/β-Catenin pathways. (a) The graphs show the Hh target genes expression levels in Ptch1^−/− MEFs treated for 48 h with 12 or DMSO as control. mRNA levels were determined by quantitative real-time PCR (qRT-PCR) normalized to endogenous control (β2-microglobulin and HPRT). Pfkfb3 gene was used as negative control. *P<0.05 versus CTR. (b and c) AP1/Jun and WNT/β-Catenin pathways activity were assayed in MEFs WT transfected with MMP1-luciferase reporter and c-Jun (b) or Top Flash-luciferase reporter and β-Catenin (c), respectively, in the presence or absence of increasing concentrations of compound 12. Treatment time was 24 h, and normalization was against Renilla luciferase.

Experiment [4] concerns Hh target genes and growth markers in GCPs. As to the kind of experiment: qRT-PCR of Hh and proliferation targets in SAG-treated GCPs. The format is cell-based, mouse. To be noted: SAG + compound at 5 and 10 μM, 48 h. From the text:
Hh signaling is a critical regulator of cerebellum development controlling the proliferation of granule cell progenitors (GCPs) under Purkinje cell-derived Shh stimuli. Withdrawal of Hh signal, occurring physiologically after the first post-natal week in mice,[54] causes cell growth arrest and induces their differentiation into mature granules.[55] Importantly, genetic and epigenetic alterations in the Hh pathway are responsible for the lack of GCPs proliferation arrest, leading to the tumorigenic conversion of these progenitors, considered as the cell of origin of MB.[56], [57] To investigate the biological effects of 12, we first tested its ability to suppress Hh-dependent growth in 4-day-old mouse cerebellar progenitors.
Figure 4 Compound 12 inhibition of Hh-dependent growth of cerebellum granule cell progenitors. (a and b) BrdU assay in cerebellar granule cell progenitors (GCPs). GCPs isolated from 4-day-old mice were treated with SAG alone or in combination with compound 12 at 5 and 10 μM concentrations for 48 h. (a) Inhibition of cell proliferation was measured as percentage of BrdU incorporation in comparison with SAG-treated sample. […] (c) qRT-PCR analysis show Hh and proliferation targets mRNA expression levels determined in GCPs culture derived from 4-day-old mouse cerebella treated with SAG alone or in combination with compound 12 at 5 and 10 μM concentrations for 48 h. […]

Experiment [5] relates to primary MB cells from Ptch1^+/− mice. Description: Trypan blue growth count of primary MB cells from Ptch1+/− mice. The experiment is classed as cell-based, mouse. The conditions noted are these: ex vivo cultures from Ptch1^+/− mice MBs. As for the experimental part:
Cell proliferation was evaluated by BrdU detection (Roche, Welwyn Garden City, UK). Briefly, after the BrdU pulse (24 h for GCPs) cells were fixed with 4% paraformaldehyde and permeabilized with 0.2% Triton X-100, and BrdU detection was performed according to the manufacturer's instructions. Nuclei were counterstained with Hoechst reagent. At least 500 nuclei were counted in triplicate, and the number of BrdU-positive nuclei was recorded. To determine the growth rate of viable cells, a trypan blue count was performed after a treatment period of 24–48–72 h with studied compound.

The test system of experiment [6] is Gli1 mRNA. As to the kind of experiment: Gli1 mRNA (qRT-PCR) in ASZ001 BCC cells. The experiment is classed as cell-based, mouse. To be noted: after drug treatment. As for the experimental part: After the indicated times, a trypan blue count was performed to determine the growth rate.
Total RNA was isolated with Trizol (Invitrogen/Life Technologies, Carlsbad, CA, USA) and reverse transcribed with SensiFAST cDNA Synthesis Kit (Bioline Reagents Limited, London, UK). Quantitative real-time PCR (Q-PCR) analysis of Gli1, Gli2, Ptch1, Bmp2, Pfkfb3, CycD1, CycD2, Pcna, Oct4, Nanog, β-2 microglobulin, β-actin and HPRT mRNA expression was performed on each cDNA sample using the VIIA7 Real Time PCR System employing Assay-on-Demand Reagents (Life Technologies).

In experiment [7] the test system is ASZ001 BCC allografts. As to the kind of experiment: ASZ001 BCC allograft in NOD/SCID mice. The experiment is classed as in vivo, mouse. The conditions noted are these: 50 mg/kg s.c. every second day, versus vehicle.

We go through one molecule from paper PMC5059851, “Inhibition of Hedgehog-dependent tumors and cancer stem cells by a newly identified naturally occurring chemotype” (Cell Death & Disease, 2016).

Molecules are shown by their SMILES. Entries after “also recorded” stand apart in the source; their conditions may differ.

Consider `COc1ccc(C=CC(=O)c2cc(OC)c(OC)cc2OC)cc1OC` [Compound 12, 3-(3,4-dimethoxy-phenyl)-1-(2,4,5-trimethoxy-phenyl)-2-propen-1-one], for which the IC50 in experiment [1] amounted to 4.44 µM. In addition, the “mRNA levels of endogenous Hh target genes, including Gli1” value in experiment [2] was “significantly reduced”. Also, the “luciferase activity driven by Wnt/β-catenin signaling” value in experiment [3] is “without affecting luciferase activity; also recorded: inactive”. Also, the “mRNA levels of Hh target genes and cell growth markers (Gli1, Gli2, Ptch1, Pcna, cyclin D2)” value in experiment [4] was “reduced mRNA levels”. Besides, the “proliferation of primary MB cells” value in experiment [5] is “significant inhibition of the proliferation”. In addition, the “Gli1 mRNA levels in ASZ001 BCC cells” value in experiment [6] is listed as “decrease of Gli1 mRNA levels”. Moreover, in experiment [7] (18 days), the “tumor cell growth (tumor volume) in BCC allograft” value is recorded as “reduction of tumor cell growth”. Also, the “percentage of Ki67 labeling in allograft tumors” value in experiment [7] is given as “decreased percentage of Ki67 labeling”.
